In patent US20230121771A1, “A PHARMACEUTICAL COMBINATION OF AN ARTEMISININ COMPOUND, 5-AMINOLEVULINIC ACID OR METHYL-5-AMINOLEVULINIC ACID AND A CHEMOTHERAPEUTIC AGENT” (JLP Health GmbH, priority 2020, published 2023):

Legend:
Type in all cases: cell-based
glioblastoma cell lines = test: 6-day cell survival assay (Cell Titer Glo 2.0), glioblastoma cell lines; settings: 6-day treatment
Method: Cell survival assays (FIGS. 12-19) were performed in 96-well plates in technical duplicates. Treatments started 24 hours post cell plating and lasted for 6-days prior to cell viability assessment with the Cell Titer Glo 2.0 Luminescent assay (Promega, G9242).

[1] = test system: neuroblastoma cells (SHSY5Y), Jurkat cells; test: Cell survival by automated cell counting in SHSY5Y and Jurkat cells; settings: artemisinin 0.5 µM, 5-ALA 0.25 mM
Method: (§1) For dosage responses, cells were seeded in 96-wells (25.000/ 96-well, in triplicate -where indicated) and subjected to compounds for 48 h. Cell viability was assessed using automated cell counting (high-throughput flow cytometry), Alamar Blue staining (Invitrogen, DAL1100) or CellTiter-Glo Luminescent Assay (Promega, G7570, according to the manufacturer’s protocol) respectively.

Jurkat cells = test: JC-1 staining of mitochondrial membrane potential; settings: 48 h, artemisinin 0.5 µM, 5-ALA 0.25 mM
Method: Cells were collected, washed with 1xPBS, incubated with 2 µM JC-1 in 1PBS (MitoProbe JC-1 Assay Kit-1, Invitrogen, M34152) for 35 min at 37° C., washed twice, and analysed using flow cytometry in the red (PE channel) and green (FITC channel) fluorescence spectrum.

[2] = test system: human glioblastoma-like neoplastic organoid model; test: Compound profiling in human glioblastoma-like neoplastic organoid model (p53, NF1, PTEN mutated); settings: compound alone
Method: Tumor initiation was induced by either oncogene amplification, using a Sleeping Beauty (SB) transposase, or mutation of tumor suppressor genes, using the CRISPR-Cas9 system in day 10 old embryoid bodies (EBs). Plasmids carrying the transposase as well as GFP and the desired oncogenes or expressing Cas9 nuclease were introduced by electroporation. In brief, a mixture of 1 μg DNA and 100 μl nucleofector solution was added to 10 EBs and transferred to a nucleofection cuvette. The Lonza Nucleofector 2b and the A-023 program were used for electroporation/ nucleofection. […] Cerebral tumor organoids were treated with different compounds and the survival and growth of transformed as well as untransformed neurons was monitored. Fluorescence labeling of tumor cells allowed clear distinguishability of transformed cells as compared to non-labeled throughout the experiment using brightfield microscopy, as well as fluorescence imaging. The transformed tumor tissue and untransformed neurons within the same organoid was monitored using fluorescence imaging, as well as brightfield microscopy throughout the experiment. At the endpoint of the treatment (d5 or d7 respectively), the number of GFP-positive cells was assessed by flow cytometry. […] Brightfield and green fluorescence images were taken from the same area. […]

[3] = test system: murine and human cancer cell lines; test: Cell viability of artemisinin treated cancer cell lines in presence and absence of 5-ALA (Alamar Blue, 48 h); settings: 4T1, Mcf7, B16F10, 5-ALA 0.5 mM
Method: as §1

[4] = test system: human primary glioblastoma cell lines; test: Survival of artemisinin treated primary human glioblastoma cells upon 5-ALA (CellTiter-Glo, 72 h); settings: three independently derived human primary glioblastoma cell lines
Method: […] Cell viability was assessed using automated cell counting (high-throughput flow cytometry), Alamar Blue staining (Invitrogen, DAL1100) or CellTiter-Glo Luminescent Assay (Promega, G7570, according to the manufacturer’s protocol) respectively.

With `NCC(=O)CCC(=O)O` [5-ALA, 5-amino-4-oxopentanoic acid] the “cell survival compared to untreated controls” value (glioblastoma cell lines) was “more potent than Methyl-5-ALA”, the “cell viability / cell death” value [1] was “slightly reduced cell viability” and the “mitochondrial polarisation (ΔΨm, JC-1)” value (Jurkat cells) was “increased mitochondrial polarisation”. The “survival of untransformed and transformed cells” value [2] was “little effect on the survival of untransformed cells as well as transformed cells”, the “sensitivity to artemisinin under combinatorial treatment with 5-ALA” value [3] was “gained hypersensitive to artemisinin” and the “sensitivity to artemisinin cytotoxicity upon 5-ALA” value [4] was “induced artemisinin hypersensitivity to artemisinin cytotoxicity”.
